Reference: patent publication EP3595655B1, “THERAPEUTIC DOSAGE AND REGIMEN FOR MELATONIN” (Chiesi Farmaceutici S.p.A., priority 2017, dated 2018)
“Also recorded” adds a separate entry of the source. Like-named read-outs stand apart in the source and are kept apart here.

How the values were obtained:
[1] = Solubilisation of melatonin with Captisol, with or without PEG, in different vehicles; format: physicochemical; details: Captisol solutions in WFI, glucose 10% solution or phosphate buffer
Experimental: The first set of experiments was aimed to assess the possibility to solubilise melatonin with different quantity of sulfobutylether-β-cyclodextrin (Captisol™). The test was performed by the addition of melatonin. In the solution containing the Captisol at different concentrations up to presence of undissolved material on the bottom; the solution was filtered and analysed. These tests were performed with three different vehicles: water for injection (WFI), glucose 10% solution and phosphate buffer. In a second set of experiments, PEG with different molecular weights (PEG 300 and PEG 400) was added to verify the possibility to reduce the amount of Captisol used for the dissolution. The results of the first set of experiments, were obtained measuring the assay in formulation at the higher solubility limits having on the bottom some undissolved particles. […] Captisol concentration of 5% was identified as a suitable one, and confirmed by the other results.

newborn piglets = details: intravenous 5 mg/kg/h over six hours (30 mg/kg), 10 minutes after resuscitation; cited from earlier work
[2] = Plasma melatonin levels in piglets (direct radioimmunoassay); format: in vivo; details: melatonin-treated piglets; therapeutic range from Robertson et al. 2013
[3] = test system: piglet model of neonatal asphyxia; details: for NTP/epp (whole forebrain, 9.4T MRS): 24h after hypoxia-ischaemia, melatonin 15 mg/kg i.v. over 6h at 2h and 26h plus cooling, p=0.038; for cell death (TUNEL positive cells) in the sensorimotor cortex: p<0.003, p=0.003 (Fig. 4)
Experimental: Objective: To assess neuroprotection of intravenous melatonin (15 mg/kg) infused slowly over 6h (2.5 mg/kg/h) initiated 2 h after hypoxia-ischaemia in a piglet model of neonatal asphyxia (Fig. 1). Primary outcome measures were TUNEL immuno-labelling of cell death over 9 brain regions (Fig. 2). Secondary outcomes were amplitude-integrated electroencephalography(aEEG) recovery, and magnetic resonance spectroscopy (MRS) biomarkers (NTP/epp and lactate/N acetyl aspartate).
During hypoxia-ischemia the β-NTP peak height was continuously monitored using in-house Matlab (Mathworks) software. At the point at which β-NTP had fallen to 50% of its baseline value, FiO2 was increased to 9%. […] The head was immobilized in a stereotactic frame for MRS acquisition. […] After surgical preparation, multichannel six-lead EEG monitoring (Nicolet, Care Fusion, Wisconsin, USA) was acquired at baseline and throughout the periods between MRS data acquisitions. Filtered amplitude-integrated EEG recordings were classified according to the pattern classification. A score of 0 was flat trace; 1, continuous low voltage; 2, burst suppression; 3, discontinuous normal voltage; and 4, continuous normal voltage, at baseline and then every hour after hypoxia-ischemia. […] Blood samples were collected in lithium/heparin tubes and centrifuged immediately after collection. Plasma was separated and then stored at - 20°C before analysis. Melatonin was routinely measured by direct radioimmunoassay.

[4] = test system: rat organotypic hippocampal slice cultures; experiment: Oxygen-glucose deprivation (OGD) in organotypic hippocampal slice cultures, cell death by propidium iodide incorporation; format: cell-based; details: for Cell death, estimated by propidium iodide incorporation, induced by OGD: OGD alone 90.8 ± 7.6%
From the text: Concentration-response studies were aimed at detecting the range of concentration of melatonin resulting in neuroprotection against oxygen-glucose deprivation (OGD), an experimental model simulating hypoxia-ischemia and reperfusion. Ischemia was simulated in vitro by anoxia combined with a glucose-free media (OGD) in rat organotypic hippocampal slice cultures.

Compound: COc1ccc2[nH]cc(CCNC(C)=O)c2c1 [melatonin, N-[2-(5-Methoxy-1H-indol-3-yl)ethyl] acetamide]
- influence of glucose or buffer as vehicle on solubility [1]: does not influence the solubility
- hypothermic neuroprotection (newborn piglets): increases hypothermic neuroprotection
- plasma levels [2]: within the expected therapeutic range
- 3T MRS: NTP/epp and PCr/Pi in whole forebrain, Lac/NAA in thalamus and white matter ([3]; 24 and 48h after hypoxia-ischaemia): no difference in any ratio
- NTP/epp (whole forebrain, 9.4T MRS) ([3]; versus vehicle): ameliorated the NTP/ePP decline
- NTP/epp (whole forebrain, 9.4T MRS) ([3]; versus vehicle, listed as Melatonin): higher
- 9.4T MRS: NTP/epp and PCr/Pi in whole forebrain, Lac/NAA in thalamus and white matter ([3]; baseline, 24 and 48h after hypoxia-ischaemia, melatonin 5 and 15 mg/kg groups versus vehicle, apart from 24h NTP/epp): no difference
- group mean hourly aEEG scores ([3]; between groups at any time point): no difference
- brain protection ([3]; melatonin 5 mg/kg/24h i.v. over 6h started 2h after hypoxia-ischaemia plus cooling): no protection
- cell death (TUNEL positive cells) in the sensorimotor cortex ([3]; melatonin 15 mg/kg/24h i.v. over 6h started 2h after hypoxia-ischaemia plus cooling, versus vehicle, 48h): significant protection; also recorded: significant reduction in TUNEL positive cells
- cell death (TUNEL positive cells) in the sensorimotor cortex ([3]; melatonin 15 mg/kg/24h i.v. over 6h started 2h after hypoxia-ischaemia plus cooling, versus vehicle, 48h, listed as Melatonin): reduced cell death
- cell death (TUNEL positive cells) across the whole brain ([3]; melatonin 15 mg/kg/24h i.v. over 6h started 2h after hypoxia-ischaemia plus cooling, versus vehicle, 48h, p=0.068, p=0.069 (Fig. 4)): trend of reduced cell death; also recorded: trend to overall brain reduced TUNEL positive cells; also recorded: trend towards reduced TUNEL positive cells
- physiological parameters monitored, including mean arterial pressure and inotrope use ([3]; piglets, melatonin i.v. infusion plus cooling): did not affect
- Cell death, estimated by propidium iodide incorporation, induced by OGD ([4]; 3 µM melatonin): 57.6 ± 6.9%
- Cell death, estimated by propidium iodide incorporation, induced by OGD ([4]; 10 µM melatonin): 60.9 ± 7.4%
- Cell death, estimated by propidium iodide incorporation, induced by OGD ([4]; 25 µM melatonin): 47.3 ± 3.8%
- Cell death, estimated by propidium iodide incorporation, induced by OGD ([4]; 50 µM melatonin): 38.9 ± 4.2%
- statistical analysis of the effect on OGD-induced cell death ([4]; all doses tested with the exception of 1 uM, p<0.01 Dunnet's test after ANOVA): significant effect
- reduction of OGD-induced cell death ([4]; hippocampal slice cultures of neonatal rats, 1-50 µM): concentration-dependent manner
